The subject of experiment [1] is Trx-ASK1 complex in KG-1a CD34+ cells. Kind of experiment: Trx1 immunoprecipitation, Trx-ASK1 interaction. It counts as cell-based, human. Conditions: 0.5, 2.0, 5.0 μM. As to the method: The KG-1a CD34^+ cells were treated with PepE or vehicle control (DMSO) for 12 h. The cellular proteins were extracted by RIPA buffer and quantified by the Bradford method. For each cell lysate, a volume containing 1 mg protein was mixed with 1 μg anti-Trx1 antibody coupled to 20 μL protein G-Sepharose (Abcam) and tumbled at 4 °C for 2 h. The Sepharose beads were then washed three times at 4 °C with a washing buffer containing 50 mM Tris (pH = 7.4), 0.5 M NaCl, and 1 mM EGTA. The immunoprecipitated proteins were eluted and denatured by 2×SDS-PAGE loading buffer and then boiled for 5 min. The eluted solutions were then centrifuged at 12000 g; the supernatants were collected and stored at −20 °C for SDS-PAGE and western blot analyses.

For another experiment, the target named is T1, GPX1 (Homo sapiens, UniProt P07203).
T1 construct: purchased Abcam
T1 sequence (P07203 1-203): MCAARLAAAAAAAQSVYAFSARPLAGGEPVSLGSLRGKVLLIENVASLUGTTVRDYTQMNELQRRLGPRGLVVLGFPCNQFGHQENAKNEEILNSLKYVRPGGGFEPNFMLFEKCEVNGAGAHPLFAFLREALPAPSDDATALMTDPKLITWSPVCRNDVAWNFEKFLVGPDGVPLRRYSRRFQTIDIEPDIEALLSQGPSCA
Kind of experiment: BLI binding assay, GPX1. Here is the method:
The binding kinetics of PepE or PepA to purified recombinant proteins were determined using BLI on an Octet RED 96 system (ForteBio, Shanghai, China) following the manufacturer's protocol. All interaction analyses were performed at 25 °C in PBS with 0.2% DMSO. Purified recombinant proteins (0.9 μM, the TrxR1 full length and TrxR1 protein fragment were pre-reduced by 400 μM of NADPH before test) were pre-labeled with biotin using […] (Abcam) following the manufacturer's instruction. Loading of the Dip and Read Super Streptavidin (SSA) Biosensors (ForteBio) were conducted by exposing biotinylated proteins to biosensor tips for 2 h. The 96-well microplates used in the Octet were filled with 200 μL sample or buffer per well and agitated at 1000 rpm. The loaded biosensors were washed in buffer for 600 s and transferred to wells containing PepE at concentrations of 0.625, 1.25, 2.5, 5, and 10 μM or PepA at concentrations of 1.25, 2.5, 5, 10 and 20 μM, respectively, in the buffer. […] Reference measurements were conducted using the buffer instead of PepE (or PepA). A parallel set of SA unloaded biosensors was prepared to act as a control. […] Kinetic parameters (Kon and Kdis) and affinity (KD) were determined from a global fit to a 1:1 binding model of the data between proteins and PepE using Octet software (ForteBio).

A further experiment concerns the target T2, GCLC (Homo sapiens, UniProt P48506).
T2 construct: purchased Abcam
T2 sequence (P48506 1-637): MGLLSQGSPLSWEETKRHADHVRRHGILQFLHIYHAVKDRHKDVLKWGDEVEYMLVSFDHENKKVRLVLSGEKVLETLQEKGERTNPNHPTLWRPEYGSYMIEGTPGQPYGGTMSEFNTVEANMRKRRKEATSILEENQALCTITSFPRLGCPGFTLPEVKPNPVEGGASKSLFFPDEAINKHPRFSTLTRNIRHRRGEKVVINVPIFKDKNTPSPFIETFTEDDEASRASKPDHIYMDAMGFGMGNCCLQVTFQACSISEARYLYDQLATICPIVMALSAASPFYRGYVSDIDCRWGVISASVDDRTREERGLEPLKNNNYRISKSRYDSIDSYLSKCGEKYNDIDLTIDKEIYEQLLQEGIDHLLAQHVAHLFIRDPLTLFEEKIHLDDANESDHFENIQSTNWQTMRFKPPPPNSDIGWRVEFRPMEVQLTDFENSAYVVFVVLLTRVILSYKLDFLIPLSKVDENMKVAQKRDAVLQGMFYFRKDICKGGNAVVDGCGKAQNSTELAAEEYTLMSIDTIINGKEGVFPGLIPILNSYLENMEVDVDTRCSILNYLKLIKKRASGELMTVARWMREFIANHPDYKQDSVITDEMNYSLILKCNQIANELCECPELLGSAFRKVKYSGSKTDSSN
Kind of experiment: BLI binding assay, GCLC. Here is the method:
The binding kinetics of PepE or PepA to purified recombinant proteins were determined using BLI on an Octet RED 96 system (ForteBio, Shanghai, China) following the manufacturer's protocol. All interaction analyses were performed at 25 °C in PBS with 0.2% DMSO. Purified recombinant proteins (0.9 μM, the TrxR1 full length and TrxR1 protein fragment were pre-reduced by 400 μM of NADPH before test) were pre-labeled with biotin using […] (Abcam) following the manufacturer's instruction. Loading of the Dip and Read Super Streptavidin (SSA) Biosensors (ForteBio) were conducted by exposing biotinylated proteins to biosensor tips for 2 h. The 96-well microplates used in the Octet were filled with 200 μL sample or buffer per well and agitated at 1000 rpm. The loaded biosensors were washed in buffer for 600 s and transferred to wells containing PepE at concentrations of 0.625, 1.25, 2.5, 5, and 10 μM or PepA at concentrations of 1.25, 2.5, 5, 10 and 20 μM, respectively, in the buffer. […] Reference measurements were conducted using the buffer instead of PepE (or PepA). A parallel set of SA unloaded biosensors was prepared to act as a control. The sample-sensorgrams were corrected by subtracting the double reference curve. Kinetic parameters (Kon and Kdis) and affinity (KD) were determined from a global fit to a 1:1 binding model of the data between proteins and PepE using Octet software (ForteBio).

The target in another experiment is T3, recombinant human TrxR1 (Homo sapiens, UniProt Q16881).
T3 construct: purchased Abcam ab204206
T3 sequence (Q16881 1-499 isoform Q16881-5): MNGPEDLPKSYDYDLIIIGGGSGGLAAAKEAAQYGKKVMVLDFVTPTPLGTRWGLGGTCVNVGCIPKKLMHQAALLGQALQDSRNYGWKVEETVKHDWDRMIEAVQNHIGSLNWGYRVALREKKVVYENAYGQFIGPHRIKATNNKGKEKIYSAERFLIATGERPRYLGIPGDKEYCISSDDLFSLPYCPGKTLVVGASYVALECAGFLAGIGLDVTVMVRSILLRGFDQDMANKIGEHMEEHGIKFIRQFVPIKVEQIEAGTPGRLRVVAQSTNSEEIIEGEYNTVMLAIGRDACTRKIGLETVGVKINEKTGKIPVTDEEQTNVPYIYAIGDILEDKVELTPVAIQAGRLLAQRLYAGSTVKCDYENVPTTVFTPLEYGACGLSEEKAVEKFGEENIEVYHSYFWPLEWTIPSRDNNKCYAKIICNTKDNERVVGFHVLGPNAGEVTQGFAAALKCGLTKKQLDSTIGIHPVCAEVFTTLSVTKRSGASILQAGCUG
Kind of experiment: In vitro TrxR1 activity assay (DTNB reduction). The format is biochemical. Here is the method:
The in vitro TrxR1 activity assay was performed using the DTNB reduction assay. Briefly, 0.1 μM recombinant human TrxR1 or TrxR1 without Sec498 residue (TrxR1 nSec) protein was reduced with 100 μM NADPH in assay buffer (50 mM Tris-HCl, 1 mM EDTA, pH = 7.5) for 30 min at room temperature. The reduced proteins was then treated with the indicated concentrations of PepE (final concentrations of 0.25, 0.5, 1, 2, 4, 6 μM), respectively, and incubated for 1 h at 37 °C. A mixture of assay buffer solution (50 mM Tris-HCl, 1 mM EDTA, pH = 7.5) containing DTNB and NADPH was added then added, making the final concentrations of DTNB and NADPH 2 mM and 200 μM, respectively. The absorbance was monitored at 412 nm using the SpectraMax i3x microplate reader (Molecular Devices). The linear increase of absorbance during the initial 3 min was recorded for calculating the relative enzyme activity. The same amount of DMSO was added to the control experiments and the activity is expressed as the percentage of the control.

Molecules are shown by their SMILES.

`C=C1C(=O)OC[C@H]1C(c1cc(OC)c2c(c1)OCO2)c1cc(OC)c2c(c1)OCO2` [PepE, Peperomin E]: in experiment [1], the “amount of ASK1 bound to Trx1” value was “dose-dependent decrease”. On GPX1, the Kd is 534 µM and the kon turned out to be 6400 M⁻¹ s⁻¹. On GCLC, this compound returned a Kd of 1.34 mM and a kon of 465 M⁻¹ s⁻¹. Besides, the koff at GCLC (read-out: Kdis) was 0.625 s⁻¹. The IC50 at recombinant human TrxR1 (DTNB reduction assay, NADPH-reduced TrxR1 0.1 μM, 1 h at 37 °C) is 940 nM. The “reversibility of TrxR1 inhibition” value on recombinant human TrxR1 (removal of PepE by Sephadex G-25 desalting column did not recover activity (data not shown)) is listed as “irreversibly”.

(Values after publication PMC6434189, “Peperomin E and its orally bioavailable analog induce oxidative stress-mediated apoptosis of acute myeloid leukemia progenitor cells by targeting thioredoxin reductase” (Redox Biology, 2019).)
